≈ marks a conversion by molar mass, not a printed value. Where two headings read alike, the source gives them in different places.
Assays:
Assay type in all cases: cell-based
Gram-Negative Organisms = test: microbe, parasite or virus in culture
E. faecium VRE; vanA = test: MIC, Gram-positive bacteria: E. faecium VRE; vanA; settings: Enterococcus faecium, column 3, read-out: Minimal Inhibitory Concentration (MIC) E. faecium VRE
S. aureus = test: MIC, Gram-positive bacteria: S. aureus (strains not named); settings: Staphylococcus aureus, read-out: Minimal Inhibitory Concentration (MIC) S. aureus
E. faecalis = test: MIC, Gram-positive bacteria: E. faecalis; settings: Enterococcus faecalis, column 1, read-out: Minimal Inhibitory Concentration (MIC) E. faecalis
S. pneumoniae = test: MIC, Gram-positive bacteria: S. pneumoniae; settings: Streptococcus pneumoniae, column 10, read-out: Minimal Inhibitory Concentration (MIC) S. pneumoniae
E. faecium ATCC 35667 = test: MIC, Gram-positive bacteria: E. faecium ATCC 35667; settings: Enterococcus faecium, ATCC35667, column 2, read-out: Minimal Inhibitory Concentration (MIC) E. faecium ATCC 35667
P. aeruginosa ATCC 27853 = test: MIC, Gram-negative bacteria: P. aeruginosa ATCC 27853; settings: Pseudomonas aeruginosa, ATCC27853, read-out: Minimal Inhibitory Concentration (MIC) P. aeruginosa ATCC 27853
[1] = system: S. aureus Vat A streptogramin; test: MIC, Gram-positive bacteria: S. aureus Vat A streptogramin; settings: Staphylococcus aureus; Gram-positive; column 5; read-out: Minimal Inhibitory Concentration (MIC) S. aureus Vat A streptogramin
H. influenzae ATCC 49247 = test: MIC, Gram-negative bacteria: H. influenzae ATCC 49247; settings: Haemophilus influenzae, ATCC49247, read-out: Minimal Inhibitory Concentration (MIC) H. influenzae ATCC 49247
[2] = system: P. aeruginosa MDR clinical isolate; test: MIC, Gram-negative bacteria: P. aeruginosa MDR clinical isolate; settings: Pseudomonas aeruginosa, read-out: Minimal Inhibitory Concentration (MIC) P. aeruginosa MDR clinical isolate
[3] = system: S. aureus Linezolid-resistant; cfr; test: MIC, Gram-positive bacteria: S. aureus Linezolid-resistant; cfr; settings: Staphylococcus aureus, column 9, read-out: Minimal Inhibitory Concentration (MIC) S. aureus Linezolid-resistant
[4] = system: K. pneumoniae multidrug-resistant; test: MIC, Gram-negative bacteria: K. pneumoniae multidrug-resistant; settings: Klebsiella pneumoniae, read-out: Minimal Inhibitory Concentration (MIC) K. pneumoniae multidrug-resistant
[5] = Acinetobacter baumannii, ATCC19606, read-out: Minimal Inhibitory Concentration (MIC), A. baumannii ATCC 19606
[6] = Escherichia coli, ATCC25922, read-out: Minimal Inhibitory Concentration (MIC), E. coli ATCC 25922
[7] = Escherichia coli, read-out: Minimal Inhibitory Concentration (MIC), E. coli BAS2006, OMP C, OMP F
[8] = Escherichia coli, read-out: Minimal Inhibitory Concentration (MIC), E. coli olC efflux defective
[9] = Escherichia coli, read-out: Minimal Inhibitory Concentration (MIC), E. coli permeability mutant BAS1314, IMP4213ZAB::TN10
[10] = Klebsiella pneumoniae, ATCC43816, read-out: Minimal Inhibitory Concentration (MIC), K. pneumoniae ATCC 43816
[11] = first unnamed S. aureus column (c4)
[12] = fourth unnamed S. aureus column (c8)
[13] = second unnamed S. aureus column (c6)
[14] = third unnamed S. aureus column (c7)
[15] = Escherichia coli, read-out: Minimal Inhibitory Concentration (MIC), E. coli ΔompC768, KanR insert

Structure (SMILES)	MIC (Gram-Negative Organisms; [5]) [µg/mL]	MIC (Gram-Negative Organisms; [6]) [µg/mL]	MIC (Gram-Negative Organisms; [7]) [µg/mL]	MIC (Gram-Negative Organisms; [8]) [µg/mL]	MIC (Gram-Negative Organisms; [9]) [µg/mL]	MIC (Gram-Negative Organisms; [10]) [µg/mL]	MIC (E. faecium VRE; vanA) [µg/mL]	MIC (S. aureus; [11]) [µg/mL]	MIC (S. aureus; [12]) [µg/mL]	MIC (S. aureus; [13]) [µg/mL]	MIC (S. aureus; [14]) [µg/mL]	MIC (E. faecalis) [µg/mL]	MIC (S. pneumoniae) [µg/mL]	MIC (E. faecium ATCC 35667) [µg/mL]	MIC (P. aeruginosa ATCC 27853) [µg/mL]	MIC [1] [µg/mL]	MIC (H. influenzae ATCC 49247) [µg/mL]	MIC [2] [µg/mL]	MIC [3] [µg/mL]	MIC [4] [µg/mL]	other results
CC1=C\[C@@H](O)CC(=O)Cc2nc(co2)C(=O)N2CCC[C@@H]2C(=O)O[C@H]([C@@H](C)COC(=O)Nc2cc3ccccc3cn2)[C@H](C)/C=C/C(=O)NC\C=C\1 [SA0110118]	> 64	> 64	8 (≈ 11.2 µM)	2 (≈ 2.8 µM)	2 (≈ 2.8 µM)	> 64	16 (≈ 22.4 µM)	8 (≈ 11.2 µM)	8 (≈ 11.2 µM)	8 (≈ 11.2 µM)	16 (≈ 22.4 µM)	> 64	2 (≈ 2.8 µM)	4 (≈ 5.6 µM)	> 64	> 64	> 64	> 64	> 64	> 64	
CC1=C\[C@@H](O)CC(=O)Cc2nc(co2)C(=O)N2CCC[C@@H]2C(=O)O[C@H]([C@@H](C)COC(=O)Nc2cnccn2)[C@H](C)/C=C/C(=O)NC\C=C\1 [SA0110101]	> 64	> 64	64 (≈ 96.3 µM)	8 (≈ 12 µM)	16 (≈ 24.1 µM)	> 64	> 64	> 64	> 64	> 64	> 64	> 64	32 (≈ 48.1 µM)	64 (≈ 96.3 µM)	> 64	> 64	64 (≈ 96.3 µM)	> 64	> 64	> 64	
CC1=C\[C@@H](O)CC(=O)Cc2nc(co2)C(=O)N2CCC[C@@H]2C(=O)O[C@H]([C@H](C)CF)[C@H](C)/C=C/C(=O)NC\C=C\1 [SA0110273]	> 64	> 64	16 (≈ 29.3 µM)	4 (≈ 7.33 µM)	8 (≈ 14.7 µM)	> 64	64 (≈ 117 µM)	64 (≈ 117 µM)	32 (≈ 58.7 µM)	64 (≈ 117 µM)	64 (≈ 117 µM)	> 64	16 (≈ 29.3 µM)	16 (≈ 29.3 µM)	> 64	> 64	8 (≈ 14.7 µM)	> 64	> 64	> 64	MIC (Gram-Negative Organisms; [15]): > 64 µg/mL
CC1=C\[C@@H](O)C[C@@H](F)Cc2nc(co2)C(=O)N2CCC[C@@H]2C(=O)O[C@H](C(C)C)[C@H](C)/C=C/C(=O)NC\C=C\1 [flopristin, reference compound]	> 64	32 (≈ 60.2 µM)	0.25 (≈ 0.47 µM)	1 (≈ 1.88 µM)	< 0.06	> 64	2 (≈ 3.76 µM)	0.5 (≈ 0.941 µM)	0.5 (≈ 0.941 µM)	0.5 (≈ 0.941 µM)	1 (≈ 1.88 µM)	> 64	2 (≈ 3.76 µM)	0.5 (≈ 0.941 µM)	> 64	8 (≈ 15 µM)	0.25 (≈ 0.47 µM)	> 64	> 64	> 64	MIC (Gram-Negative Organisms; [15]): 64 µg/mL (≈ 120 µM)
CC1=C\[C@@H](O)CC(=O)Cc2nc(co2)C(=O)N2CCC[C@@H]2C(=O)O[C@H]([C@@H](C)CN2CCN(C)CC2)[C@H](C)/C=C/C(=O)NC\C=C\1 [SA0110241]	> 64	> 64	> 64	> 64	> 64	> 64	> 64	> 64	> 64	> 64	> 64	> 64	> 64	> 64	> 64	> 64	> 64	> 64	> 64	> 64	MIC (Gram-Negative Organisms; [15]): > 64 µg/mL
